Test results as given in US20250340577A1, “BETA-LACTOMASE INHIBITORS AND USES THEREOF” (Case Western Reserve University, priority 2021, published 2025).
Where two headings read alike, the source gives them in different places.

Tests used:
Format in all cases: cell-based
A. baumannii 0057 = assay: MIC with cefepime, agar microdilution, CLSI; settings: compound fixed at 4 ug/ml; ADC-7
Description: (§1) Minimum inhibitory concentration (MIC) of MB076 and derivatives (PCF_038-043) in combination with cefepime.
(§2) MICs were determined by the Agar microdilution method, following CLSI guidelines. Compounds were tested at fixed concentration of 4 ug/ml in combination with cefepime.

E. coli 29838 = assay: MIC with cefepime, agar microdilution, CLSI; settings: compound fixed at 4 ug/ml; CTX-M-14, TEM-1
Description: as §1, §2

E. coli ATCC BAA202 = assay: MIC with cefepime, agar microdilution, CLSI; settings: compound fixed at 4 ug/ml; SHV-1
Description: as §1, §2

[1] = tested on: E. coli DH10B pBC-SK KPC-2; assay: MIC with cefepime, agar microdilution, CLSI; settings: compound fixed at 4 ug/ml
Description: as §1, §2

E. coli DH10B pBC-SK P99 = assay: MIC with cefepime, agar microdilution, CLSI; settings: compound fixed at 4 ug/ml
Description: as §1, §2

[2] = tested on: E. coli DH10B pBC-SK PDC-3; assay: MIC with cefepime, agar microdilution, CLSI; settings: compound fixed at 4 ug/ml
Description: as §1, §2

[3] = tested on: E. coli DH10B pBC-SK SHV-2; assay: MIC with cefepime, agar microdilution, CLSI; settings: compound fixed at 4 ug/ml
Description: as §1, §2

[4] = tested on: E. coli DH10B pBC-SK control; assay: MIC with cefepime, agar microdilution, CLSI; settings: compound fixed at 4 ug/ml; B-lactamases none
Description: as §1, §2

E. coli pLTCF1 = assay: MIC with cefepime, agar microdilution, CLSI; settings: compound fixed at 4 ug/ml; CTX-M group 9
Description: as §1, §2

E. coli pLTCF2 = assay: MIC with cefepime, agar microdilution, CLSI; settings: compound fixed at 4 ug/ml
Description: as §1, §2

K. pneumoniae 253 = assay: MIC with cefepime, agar microdilution, CLSI; settings: compound fixed at 4 ug/ml; TEM-12, SHV-5, CTX-M
Description: as §1, §2

K. pneumoniae 255 = assay: MIC with cefepime, agar microdilution, CLSI; settings: compound fixed at 4 ug/ml; TEM-1, SHV-2
Description: as §1, §2

K. pneumoniae 266 = assay: MIC with cefepime, agar microdilution, CLSI; settings: compound fixed at 4 ug/ml; SHV-5
Description: as §1, §2

K. pneumoniae 34700 = assay: MIC with cefepime, agar microdilution, CLSI; settings: compound fixed at 4 ug/ml; CTX-M-15, SHV, TEM
Description: as §1, §2

K. pneumoniae 427 = assay: MIC with cefepime, agar microdilution, CLSI; settings: compound fixed at 4 ug/ml; TEM-1, SHV-1, CTX-M-3
Description: as §1, §2

K. pneumoniae ST17 = assay: MIC with cefepime, agar microdilution, CLSI; settings: compound fixed at 4 ug/ml; KPC-2, TEM, SHV, CTX-M-Group 1
Description: as §1, §2

K. pneumoniae ST258 B5 = assay: MIC with cefepime, agar microdilution, CLSI; settings: compound fixed at 4 ug/ml; KPC-2
Description: as §1, §2

K. pneumoniae ST258 C3 = assay: MIC with cefepime, agar microdilution, CLSI; settings: compound fixed at 4 ug/ml; KPC-3
Description: as §1, §2

[5] = tested on: K. pneumoniae original KPC-2; assay: MIC with cefepime, agar microdilution, CLSI; settings: compound fixed at 4 ug/ml
Description: as §1, §2

[6] = tested on: Klebsiella pneumonia/BAA-1705; assay: MIC of MB076 alone or in combination with cefepime or meropenem; settings: Klebsiella pneumoniae, BAA1705
Description: as §2

[7] = tested on: Klebsiella pneumonia/FDA-CDC AR-BANK#0097; assay: as above; settings: Klebsiella pneumoniae
Description: as §2

[8] = tested on: Klebsiella pneumonia/FDA-CDC AR-BANK#0098; assay: as above; settings: Klebsiella pneumoniae
Description: as §2

K. pneum blaKPC-2 = assay: MIC of antibiotics in combination with 10 μg/mL of ceftolozane-like BATSIs; settings: FEP + 10 μg/mL compound
K. pneum KPC-Kpn = assay: as above; settings: FEP + 10 μg/mL compound
blaCTXM-9 = assay: as above; settings: FEP + 10 μg/mL compound
blaADC-7 = assay: as above; settings: CAZ + 10 μg/mL compound
blaCMY-2 = assay: as above; settings: CAZ + 10 μg/mL compound
18SH = assay: as above; settings: CAZ + 10 μg/mL compound
blaPDC-3E221K = assay: as above; settings: CAZ + 10 μg/mL compound

Compound | MIC of cefepime in combination with compound (A. baumannii 0057) | MIC of cefepime in combination with compound (E. coli 29838) | MIC of cefepime in combination with compound (E. coli ATCC BAA202) | MIC of cefepime in combination with compound [1] | MIC of cefepime in combination with compound (E. coli DH10B pBC-SK P99) | MIC of cefepime in combination with compound [2] | MIC of cefepime in combination with compound [3] | MIC of cefepime in combination with compound [4] | MIC of cefepime in combination with compound (E. coli pLTCF1) | MIC of cefepime in combination with compound (E. coli pLTCF2) | MIC of cefepime in combination with compound (K. pneumoniae 253) | MIC of cefepime in combination with compound (K. pneumoniae 255) | MIC of cefepime in combination with compound (K. pneumoniae 266) | MIC of cefepime in combination with compound (K. pneumoniae 34700) | MIC of cefepime in combination with compound (K. pneumoniae 427) | MIC of cefepime in combination with compound (K. pneumoniae ST17) | MIC of cefepime in combination with compound (K. pneumoniae ST258 B5) | MIC of cefepime in combination with compound (K. pneumoniae ST258 C3) | MIC of cefepime in combination with compound [5] | other results
Cc1nnc(SCC(=O)N[C@@H](Cn2cc(C(=O)O)nn2)B(O)O)[nH]1 [PCF_038] | 64 µg/mL | < 0.25 µg/mL | 0.5 µg/mL | < 0.25 µg/mL | < 0.25 µg/mL | < 0.25 µg/mL | < 0.25 µg/mL | < 0.25 µg/mL | < 0.25 µg/mL | < 0.25 µg/mL | 2 µg/mL | 2 µg/mL | < 0.25 µg/mL | 1 µg/mL | < 0.25 µg/mL | 32 µg/mL | 16 µg/mL | 0.5 µg/mL | < 0.25 µg/mL | –
O=C(CS)N[C@@H](Cn1cc(C(=O)O)nn1)B(O)O [PCF_043] | 32 µg/mL | 0.5 µg/mL | 1 µg/mL | 1 µg/mL | 1 µg/mL | < 0.25 µg/mL | < 0.25 µg/mL | < 0.25 µg/mL | 1 µg/mL | < 0.25 µg/mL | 4 µg/mL | 4 µg/mL | < 0.25 µg/mL | 4 µg/mL | 1 µg/mL | 32 µg/mL | 16 µg/mL | 2 µg/mL | 1 µg/mL | –
O=C(CNn1cnnc1S)N[C@@H](Cn1cc(C(=O)O)nn1)B(O)O [PCF_039] | 32 µg/mL | < 0.25 µg/mL | < 0.25 µg/mL | < 0.25 µg/mL | < 0.25 µg/mL | < 0.25 µg/mL | < 0.25 µg/mL | < 0.25 µg/mL | < 0.25 µg/mL | < 0.25 µg/mL | 1 µg/mL | 2 µg/mL | < 0.25 µg/mL | 1 µg/mL | < 0.25 µg/mL | 16 µg/mL | 4 µg/mL | < 0.25 µg/mL | 0.5 µg/mL | –
O=C(CSC1=NCCS1)NC(Cn1cc(C(=O)O)nn1)B(O)O (centres unmarked) [PCF_040] | 32 µg/mL | 0.5 µg/mL | 2 µg/mL | 1 µg/mL | < 0.25 µg/mL | < 0.25 µg/mL | 0.5 µg/mL | < 0.25 µg/mL | 0.5 µg/mL | < 0.25 µg/mL | 4 µg/mL | 2 µg/mL | < 0.25 µg/mL | 4 µg/mL | 1 µg/mL | 32 µg/mL | 32 µg/mL | 2 µg/mL | 2 µg/mL | –
CN(C)c1cc(NC(=O)CNC(C)(C)C)c(O)c2c1C[C@H]1C[C@H]3[C@H](N(C)C)C(O)=C(C(N)=O)C(=O)[C@@]3(O)C(O)=C1C2=O [Tigecycline] | – | – | – | – | – | – | – | – | – | – | – | – | – | – | – | – | – | – | – | MIC [6]: 2 µg/mL; MIC [7]: 4 µg/mL; MIC [8]: 1 µg/mL
CC(C)(O/N=C(\C(=O)N[C@@H](Cn1cc(C(=O)O)nn1)B(O)O)c1nsc(N)n1)C(=O)O [PCF_014] | – | – | – | – | – | – | – | – | – | – | – | – | – | – | – | – | – | – | – | MIC values of antibiotics in combination with 10 μg/mL of compounds (K. pneum blaKPC-2): 32 µg/mL; MIC values of antibiotics in combination with 10 μg/mL of compounds (K. pneum KPC-Kpn): 32 µg/mL; MIC values of antibiotics in combination with 10 μg/mL of compounds (blaCTXM-9): 2 µg/mL; MIC values of antibiotics in combination with 10 μg/mL of compounds (blaADC-7): 8 µg/mL; MIC values of antibiotics in combination with 10 μg/mL of compounds (blaCMY-2): 64 µg/mL; MIC values of antibiotics in combination with 10 μg/mL of compounds (18SH): 64 µg/mL; MIC values of antibiotics in combination with 10 μg/mL of compounds (blaPDC-3E221K): 32 µg/mL
O=C(CNc1nnc(S)s1)N[C@@H](Cn1cc(C(=O)O)nn1)B(O)O [PCF_041] | 64 µg/mL | < 0.25 µg/mL | 0.5 µg/mL | < 0.25 µg/mL | < 0.25 µg/mL | < 0.25 µg/mL | < 0.25 µg/mL | < 0.25 µg/mL | 0.5 µg/mL | < 0.25 µg/mL | 2 µg/mL | – | < 0.25 µg/mL | 2 µg/mL | 0.5 µg/mL | 16 µg/mL | 16 µg/mL | 1 µg/mL | 0.5 µg/mL | –
CC(C)(O/N=C(\C(=O)NCB(O)O)c1nsc(N)n1)C(=O)O [PCF_013] | – | – | – | – | – | – | – | – | – | – | – | – | – | – | – | – | – | – | – | MIC values of antibiotics in combination with 10 μg/mL of compounds (K. pneum blaKPC-2): 16 µg/mL; MIC values of antibiotics in combination with 10 μg/mL of compounds (K. pneum KPC-Kpn): 16 µg/mL; MIC values of antibiotics in combination with 10 μg/mL of compounds (blaCTXM-9): 4 µg/mL; MIC values of antibiotics in combination with 10 μg/mL of compounds (blaADC-7): 4 µg/mL; MIC values of antibiotics in combination with 10 μg/mL of compounds (blaCMY-2): 64 µg/mL; MIC values of antibiotics in combination with 10 μg/mL of compounds (18SH): 64 µg/mL; MIC values of antibiotics in combination with 10 μg/mL of compounds (blaPDC-3E221K): 8 µg/mL
C[C@@H](O)[C@H]1C(=O)N2C(C(=O)O)=C(S[C@@H]3CN[C@H](C(=O)N(C)C)C3)[C@H](C)[C@H]12 [Meropenem, meropenem] | – | – | – | – | – | – | – | – | – | – | – | – | – | – | – | – | – | – | – | MIC ([6]; single agent, read-out: MIC): 32 µg/mL; MIC ([7]; single agent, read-out: MIC): > 32 µg/mL; MIC ([8]; single agent, read-out: MIC): 16 µg/mL
O=C(CSc1ccccn1)N[C@@H](Cn1cc(C(=O)O)nn1)B(O)O [PCF_042] | 64 µg/mL | < 0.25 µg/mL | < 0.25 µg/mL | – | < 0.25 µg/mL | < 0.25 µg/mL | < 0.25 µg/mL | < 0.25 µg/mL | < 0.25 µg/mL | < 0.25 µg/mL | – | 2 µg/mL | < 0.25 µg/mL | 1 µg/mL | < 0.25 µg/mL | 32 µg/mL | 16 µg/mL | 0.5 µg/mL | < 0.25 µg/mL | –
